Here are results for 7 compounds from US8778919B2, “Cyclic anilino—pyridinotriazines” (Janssen Pharmaceutica NV, priority 2005, dated 2014).

Holding throughout (type): biochemical
In one assay the target is CDK3/cyclinE (h) (Homo sapiens, UniProt Q00526). The experiment in a line: Kinase profiling C3.5 CDK3/cyclinE human. Conditions: test concentration of 10^−6 M. Here is the method:
(§1) The in vitro inhibition of a panel of kinases was assessed using either the glass-fiber filter technology as described by Davies, S. P. et al., Biochem J. (2000), 351; p. 95-105. In the glass-fiber filter technology the activity of the kinase of interest is measured using an appropriate substrate that is incubated with the aforementioned kinase protein in the presence of (^33P) radiolabeled ATP. (^33P) Phosporylation of the substrate is subsequently measured as radioactivity bound on a glassfiber-filter.
(§2) All kinases are pre-diluted to a 10× working concentration prior to addition into the assay. The composition of the dilution buffer for each kinase is detailed below.
(§3) All substrates are dissolved and diluted to working stocks in de-ionised water, apart from histone H1 that is stored in 10× working stock in 20 mM MOPS pH 7.4.
(§4) In a final reaction volume of 25 μl, CDK3/cyclinE (h) (5-10 mU) is incubated with 8 mM MOPS pH 7.0, 0.2 mM EDTA, 0.1 mg/ml histone H1, 10 mM MgAcetate and [γ-^33P-ATP] (specific activity approx. 500 cpm/pmol, concentration as required). The reaction is initiated by the addition of the MgATP mix. After incubation for 40 minutes at room temperature, the reaction is stopped by the addition of 5 μl of a 3% phosphoric acid solution. 10 μl of the reaction is then spotted onto a P30 filtermat and washed three times for 5 minutes in 75 mM phosphoric acid and once in methanol prior to drying and scintillation counting.

A further assay concerns the target CDK2/cyclinE (h) (Homo sapiens, UniProt P24941). The experiment in a line: Kinase profiling C3.4 CDK2/cyclinE human. The settings on record: test concentration of 10^−6 M. On the procedure: as §1, §2, §3
as §4, with “CDK2/cyclinE” for “CDK3/cyclinE”

The target of another assay is CDK6/cyclinD3 human (Homo sapiens, UniProt Q00534). In words: Kinase profiling C3.7 CDK6/cyclinD3 human. Conditions: CDK6/cyclinD3, test concentration of 10^−6 M. On the procedure: as §1, §2, §3
as §4, with “CDK6/cyclinD3 human” for “CDK3/cyclinE (h)”

The next assay addresses CDK7/cyclinH/MAT1 (h) (Homo sapiens, UniProt P50613). The experiment in a line: Kinase profiling C3.8 CDK7/cyclinH/MAT1 human. The settings on record: CDK7/cyclinH/MAT1, test concentration of 10^−6 M. On the procedure: as §1, §2, §3
as §4, with “CDK7/cyclinH/MAT1” for “CDK3/cyclinE”, “500 μM peptide,” for “0.1 mg/ml histone H1,”

The next assay has as its target CDK1/cyclinB (h) (Homo sapiens, UniProt P06493). The experiment in a line: Kinase profiling C3.2 CDK1/cyclinB human. Conditions: test concentration of 10^−6 M. On the procedure: as §1, §2, §3
as §4, with “CDK1/cyclinB” for “CDK3/cyclinE”

The next assay deals with CDK2/cyclinA (h) (Homo sapiens, UniProt P24941). The experiment in a line: Kinase profiling C3.3 CDK2/cyclinA human. Conditions: test concentration of 10^−6 M. On the procedure:
as §1, §2, §3
as §4, with “CDK2/cyclinA” for “CDK3/cyclinE”

Another assay deals with GSK-3α (Homo sapiens, UniProt P49840). In words: GSK-3 kinase assay (C1), GSK-3α. The settings on record: 1 μM ATP, read-out: C1 Score α. On the procedure:
(§5) In vitro GSK-3 assays were performed at room temperature in a 100 μl reaction volume of 25 mM Tris (pH 7.4) containing 10 mM MgCl2.6H2O, 1 mM DTT, 0.1 mg/ml BSA, 5% glycerol, 5.7 ng/μl GSK-3β or 0.25 ng/μl GSK-3α, 5 μM biotinylated CREB peptide, 1 μM ATP, 0.85 μCi/ml ^33P-ATP and a suitable amount of a test compound. After one hour, the reaction was terminated by adding 70 μl of Stop mix (0.1 mM ATP, 5 mg/ml streptavidin coated PVT SPA beads, pH 11.0). The beads were allowed to settle overnight and the radioactivity attached to the beads was counted in a microtiter plate scintillation counter and compared with the results obtained in a control experiment (without the presence of a test compound) in order to determine the percentage of GSK-3 inhibition. The IC50 value, i.e. the concentration (M) of the test compound at which 50% of GSK-3 is inhibited, was calculated from the dose response curve obtained by performing the above-described GSK-3 assay in the presence of different amounts of the test compound. Score 1=pIC50 value<6, Score 2=pIC50 value from 6-7, Score 3=pIC50 value from 7-8, Score 4=pIC50 value>8.

For another assay, the target named is GSK-3β (Homo sapiens, UniProt P49841). The experiment in a line: GSK-3 kinase assay (C1), GSK-3β. The settings on record: 1 μM ATP, read-out: C1 Score β. On the procedure: as §5
Another assay has as its target CDK5/p35 human (Homo sapiens, UniProt Q00535). In words: Kinase profiling C3.6 CDK5/p35 human. The settings on record: CDK5/p35, test concentration of 10^−6 M. Here is the method: as §1, §2, §3
as §4, with “CDK5/p35 human” for “CDK3/cyclinE (h)”

Molecules are shown by their SMILES.

CDK1/cyclinB (h), sequence (P06493 whole entry): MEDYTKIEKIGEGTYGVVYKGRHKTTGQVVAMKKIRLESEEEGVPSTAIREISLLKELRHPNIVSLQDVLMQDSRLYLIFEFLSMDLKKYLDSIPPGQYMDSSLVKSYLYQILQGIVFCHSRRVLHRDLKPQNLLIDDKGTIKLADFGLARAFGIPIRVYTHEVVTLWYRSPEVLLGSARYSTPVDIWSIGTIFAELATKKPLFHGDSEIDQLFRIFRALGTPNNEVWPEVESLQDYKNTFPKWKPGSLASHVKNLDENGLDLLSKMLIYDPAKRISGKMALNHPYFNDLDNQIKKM
CDK1/cyclinB (h), sequence (P14635 whole entry partner): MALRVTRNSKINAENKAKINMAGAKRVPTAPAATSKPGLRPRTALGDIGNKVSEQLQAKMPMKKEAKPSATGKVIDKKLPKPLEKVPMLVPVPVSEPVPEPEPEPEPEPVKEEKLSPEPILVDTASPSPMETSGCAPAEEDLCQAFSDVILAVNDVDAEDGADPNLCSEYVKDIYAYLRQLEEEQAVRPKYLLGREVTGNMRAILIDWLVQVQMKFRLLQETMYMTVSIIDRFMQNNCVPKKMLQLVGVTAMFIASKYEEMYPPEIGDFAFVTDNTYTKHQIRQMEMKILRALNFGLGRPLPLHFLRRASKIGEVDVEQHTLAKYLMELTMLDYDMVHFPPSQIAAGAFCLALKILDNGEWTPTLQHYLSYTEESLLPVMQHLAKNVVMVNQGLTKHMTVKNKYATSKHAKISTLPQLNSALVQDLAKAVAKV
CDK6/cyclinD3 human, sequence (Q00534 whole entry): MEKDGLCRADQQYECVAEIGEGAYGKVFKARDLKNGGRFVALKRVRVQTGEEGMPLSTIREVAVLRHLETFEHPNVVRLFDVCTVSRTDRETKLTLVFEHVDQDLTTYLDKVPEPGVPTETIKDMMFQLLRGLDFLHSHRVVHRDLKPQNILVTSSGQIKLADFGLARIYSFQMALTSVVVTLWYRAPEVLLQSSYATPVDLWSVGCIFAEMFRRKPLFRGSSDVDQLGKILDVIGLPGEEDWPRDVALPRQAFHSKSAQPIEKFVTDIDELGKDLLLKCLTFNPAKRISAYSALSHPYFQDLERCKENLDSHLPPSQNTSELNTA
CDK6/cyclinD3 human, sequence (P30281 whole entry partner): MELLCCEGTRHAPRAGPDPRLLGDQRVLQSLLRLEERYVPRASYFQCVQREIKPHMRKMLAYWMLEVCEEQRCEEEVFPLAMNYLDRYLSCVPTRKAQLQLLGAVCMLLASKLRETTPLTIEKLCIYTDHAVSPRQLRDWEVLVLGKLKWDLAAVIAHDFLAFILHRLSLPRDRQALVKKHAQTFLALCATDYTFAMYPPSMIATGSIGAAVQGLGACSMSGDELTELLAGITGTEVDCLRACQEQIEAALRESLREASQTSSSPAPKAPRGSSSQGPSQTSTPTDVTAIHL
GSK-3α, sequence (P49840 whole entry, species assumed): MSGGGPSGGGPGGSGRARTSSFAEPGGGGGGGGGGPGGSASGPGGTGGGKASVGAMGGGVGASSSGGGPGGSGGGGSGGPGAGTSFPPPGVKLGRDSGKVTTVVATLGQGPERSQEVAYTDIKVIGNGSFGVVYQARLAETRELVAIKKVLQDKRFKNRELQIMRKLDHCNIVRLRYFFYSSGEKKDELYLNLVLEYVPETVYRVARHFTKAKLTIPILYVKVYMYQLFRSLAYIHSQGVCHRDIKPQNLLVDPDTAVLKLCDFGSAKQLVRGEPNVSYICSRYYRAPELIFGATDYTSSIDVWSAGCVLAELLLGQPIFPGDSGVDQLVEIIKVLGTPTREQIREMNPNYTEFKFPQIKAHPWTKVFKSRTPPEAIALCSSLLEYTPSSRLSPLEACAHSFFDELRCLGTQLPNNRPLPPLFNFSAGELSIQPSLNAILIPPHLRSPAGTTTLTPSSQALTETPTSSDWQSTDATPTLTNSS
GSK-3β, sequence (P49841 whole entry, species assumed): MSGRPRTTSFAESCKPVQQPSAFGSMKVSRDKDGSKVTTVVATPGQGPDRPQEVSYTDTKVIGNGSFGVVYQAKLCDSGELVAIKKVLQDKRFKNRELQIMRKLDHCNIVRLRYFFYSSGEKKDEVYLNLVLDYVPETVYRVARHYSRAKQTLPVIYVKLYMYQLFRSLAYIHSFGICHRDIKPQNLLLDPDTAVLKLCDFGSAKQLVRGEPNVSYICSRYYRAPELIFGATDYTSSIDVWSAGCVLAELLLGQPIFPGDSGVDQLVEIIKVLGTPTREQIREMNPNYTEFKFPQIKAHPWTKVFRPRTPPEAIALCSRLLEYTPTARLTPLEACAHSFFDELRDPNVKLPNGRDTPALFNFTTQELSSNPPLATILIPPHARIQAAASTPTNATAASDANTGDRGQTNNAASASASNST
CDK7/cyclinH/MAT1 (h), sequence (P50613 whole entry): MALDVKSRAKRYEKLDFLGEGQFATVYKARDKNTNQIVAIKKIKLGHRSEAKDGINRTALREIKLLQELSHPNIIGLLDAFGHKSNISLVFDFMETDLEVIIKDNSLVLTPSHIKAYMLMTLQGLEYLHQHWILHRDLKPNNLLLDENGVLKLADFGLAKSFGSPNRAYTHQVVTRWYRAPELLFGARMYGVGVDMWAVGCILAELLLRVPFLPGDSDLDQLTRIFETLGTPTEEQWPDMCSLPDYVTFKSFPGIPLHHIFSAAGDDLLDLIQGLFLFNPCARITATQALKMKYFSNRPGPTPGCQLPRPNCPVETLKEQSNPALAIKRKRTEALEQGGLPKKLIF
CDK7/cyclinH/MAT1 (h), sequence (P51946 whole entry partner): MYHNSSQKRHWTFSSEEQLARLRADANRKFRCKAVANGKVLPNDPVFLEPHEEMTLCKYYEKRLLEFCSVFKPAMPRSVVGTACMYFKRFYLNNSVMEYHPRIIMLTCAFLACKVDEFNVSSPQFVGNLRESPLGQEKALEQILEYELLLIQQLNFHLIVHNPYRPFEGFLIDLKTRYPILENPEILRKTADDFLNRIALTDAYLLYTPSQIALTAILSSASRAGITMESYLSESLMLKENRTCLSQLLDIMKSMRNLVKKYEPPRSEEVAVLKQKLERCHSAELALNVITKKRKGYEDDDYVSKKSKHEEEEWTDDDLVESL
CDK7/cyclinH/MAT1 (h), sequence (P51948 whole entry partner): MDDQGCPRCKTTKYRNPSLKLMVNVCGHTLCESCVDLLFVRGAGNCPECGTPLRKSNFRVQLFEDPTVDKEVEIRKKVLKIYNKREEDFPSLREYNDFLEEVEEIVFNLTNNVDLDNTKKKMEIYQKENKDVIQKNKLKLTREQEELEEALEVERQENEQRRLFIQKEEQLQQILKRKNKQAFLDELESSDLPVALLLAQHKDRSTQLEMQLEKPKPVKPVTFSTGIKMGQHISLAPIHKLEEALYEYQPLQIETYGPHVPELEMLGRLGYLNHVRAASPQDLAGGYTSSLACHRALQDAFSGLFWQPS
CDK5/p35 human, sequence (Q00535 whole entry): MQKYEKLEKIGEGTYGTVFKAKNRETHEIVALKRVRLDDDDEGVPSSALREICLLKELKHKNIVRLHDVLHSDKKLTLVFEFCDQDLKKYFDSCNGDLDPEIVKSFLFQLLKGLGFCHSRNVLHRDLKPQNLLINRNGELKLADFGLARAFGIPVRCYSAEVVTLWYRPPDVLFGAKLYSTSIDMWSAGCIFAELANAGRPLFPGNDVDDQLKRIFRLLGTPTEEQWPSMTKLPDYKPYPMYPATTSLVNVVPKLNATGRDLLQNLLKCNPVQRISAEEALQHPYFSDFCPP
CDK5/p35 human, sequence (Q15078 whole entry partner): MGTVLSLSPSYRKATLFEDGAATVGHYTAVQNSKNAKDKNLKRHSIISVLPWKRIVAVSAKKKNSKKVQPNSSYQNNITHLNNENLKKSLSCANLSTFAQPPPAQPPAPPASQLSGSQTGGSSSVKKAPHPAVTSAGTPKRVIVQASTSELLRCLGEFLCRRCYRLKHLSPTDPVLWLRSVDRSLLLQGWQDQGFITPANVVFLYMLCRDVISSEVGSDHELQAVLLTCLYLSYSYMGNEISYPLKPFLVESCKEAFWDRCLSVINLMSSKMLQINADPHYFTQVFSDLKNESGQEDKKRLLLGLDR

Regarding `O=C1NCCc2cccc(c2)Nc2ncnc(n2)-c2ccnc(c2)CCCN2CCCC1C2` (stereo not shown) [Compound 26], at CDK3/cyclinE (h), the C3.5 score is given as 3 (Score 3 = 60-80% inhibition). On CDK2/cyclinE (h), the C3.4 score was 4 (Score 4 = >80% inhibition). For the same compound, at CDK6/cyclinD3 human, the C3.7 score is listed as 1 (Score 1 = 10-30% inhibition). Also, at CDK7/cyclinH/MAT1 (h), the C3.8 score was 2 (Score 2 = 30-60% inhibition). At CDK1/cyclinB (h), the C3.2 score is listed as 1 (Score 1 = 10-30% inhibition). In addition, the C3.3 score on CDK2/cyclinA (h) is on record as 3 (Score 3 = 60-80% inhibition). In addition, the IC50 at GSK-3α and at GSK-3β was 10 to 100 nM throughout. Besides, the C3.6 score on CDK5/p35 human is given as 2 (Score 2 = 30-60% inhibition).
As to `CN1CCC(=O)NCCNc2cc(ccn2)-c2ncnc(n2)Nc2cccc(c2)C1` [Compound 17], on CDK3/cyclinE (h), the C3.5 score is 4 (Score 4 = >80% inhibition). For the same compound, the C3.4 score at CDK2/cyclinE (h) is 4 (Score 4 = >80% inhibition). Besides, the C3.7 score at CDK6/cyclinD3 human is reported as 2 (Score 2 = 30-60% inhibition). Also, at CDK7/cyclinH/MAT1 (h), the C3.8 score is listed as 3 (Score 3 = 60-80% inhibition). Also, the C3.2 score at CDK1/cyclinB (h) is reported as 4 (Score 4 = >80% inhibition). Also, at CDK2/cyclinA (h), the C3.3 score is on record as 4 (Score 4 = >80% inhibition). Besides, the IC50 on GSK-3α and at GSK-3β was 10 to 100 nM each time. Further, on CDK5/p35 human, the C3.6 score was 4 (Score 4 = >80% inhibition).
In the case of `O=C1NCCNc2cc(ccn2)-c2ncnc(n2)Nc2cccc(c2)CN2CCC[C@H]12` [Compound 18], the C3.5 score at CDK3/cyclinE (h) is recorded as 3 (Score 3 = 60-80% inhibition). In addition, on CDK2/cyclinE (h), the C3.4 score is reported as 4 (Score 4 = >80% inhibition). The C3.7 score at CDK6/cyclinD3 human is given as 1 (Score 1 = 10-30% inhibition). Besides, the C3.8 score on CDK7/cyclinH/MAT1 (h) is given as 2 (Score 2 = 30-60% inhibition). At CDK1/cyclinB (h), the C3.2 score was 3 (Score 3 = 60-80% inhibition). Moreover, on CDK2/cyclinA (h), the C3.3 score is recorded as 4 (Score 4 = >80% inhibition). In addition, the IC50 on GSK-3α and at GSK-3β was 100 to 1000 nM each time. Besides, the C3.6 score at CDK5/p35 human is on record as 2 (Score 2 = 30-60% inhibition).
As for `O=C1CCN2CCN(CC2)Cc2cccc(c2)Nc2ncnc(n2)-c2ccnc(c2)NCCCN1` [Compound 22], the C3.5 score at CDK3/cyclinE (h) is given as 4 (Score 4 = >80% inhibition). Moreover, on CDK2/cyclinE (h), the C3.4 score is given as 4 (Score 4 = >80% inhibition). Besides, the C3.7 score on CDK6/cyclinD3 human was 1 (Score 1 = 10-30% inhibition). Further, the C3.8 score at CDK7/cyclinH/MAT1 (h) is 1 (Score 1 = 10-30% inhibition). Moreover, the C3.2 score on CDK1/cyclinB (h) is 4 (Score 4 = >80% inhibition). The C3.3 score at CDK2/cyclinA (h) is given as 4 (Score 4 = >80% inhibition). Moreover, the IC50 on GSK-3α and on GSK-3β was 100 to 1000 nM in each case. In addition, at CDK5/p35 human, the C3.6 score is given as 2 (Score 2 = 30-60% inhibition).
Turning to `CN1CC(=O)NCCCc2cc(ccn2)-c2ncnc(n2)Nc2cc(Cl)ccc2C1` [Compound 31], at CDK3/cyclinE (h), the C3.5 score is 4 (Score 4 = >80% inhibition). Besides, the C3.4 score at CDK2/cyclinE (h) was 3 (Score 3 = 60-80% inhibition). Besides, the C3.7 score at CDK6/cyclinD3 human is recorded as 1 (Score 1 = 10-30% inhibition). The C3.8 score on CDK7/cyclinH/MAT1 (h) is listed as 1 (Score 1 = 10-30% inhibition). For the same compound, the C3.2 score at CDK1/cyclinB (h) is on record as 3 (Score 3 = 60-80% inhibition). Besides, the C3.3 score at CDK2/cyclinA (h) was 2 (Score 2 = 30-60% inhibition). Besides, the IC50 on GSK-3α and on GSK-3β was more than 1000 nM throughout. Besides, the C3.6 score at CDK5/p35 human is 4 (Score 4 = >80% inhibition).
In the case of `CN1Cc2cccc(c2)Nc2ncnc(n2)-c2ccnc(c2)NCCCNC(=O)CCN2CCC1CC2` [Compound 23], the C3.5 score at CDK3/cyclinE (h) is on record as 3 (Score 3 = 60-80% inhibition). Further, the C3.4 score on CDK2/cyclinE (h) is 4 (Score 4 = >80% inhibition). Further, at CDK6/cyclinD3 human, the C3.7 score is 1 (Score 1 = 10-30% inhibition). Also, the C3.8 score on CDK7/cyclinH/MAT1 (h) is on record as 1 (Score 1 = 10-30% inhibition). Also, the C3.2 score on CDK1/cyclinB (h) was 2 (Score 2 = 30-60% inhibition). Also, the C3.3 score on CDK2/cyclinA (h) is on record as 3 (Score 3 = 60-80% inhibition). In addition, the IC50 on GSK-3α and at GSK-3β was 100 to 1000 nM each time. Besides, the C3.6 score at CDK5/p35 human is reported as 2 (Score 2 = 30-60% inhibition).
For the compound `O=C1CN2CCN(CC2)Cc2cccc(c2)Nc2ncnc(n2)-c2cccc(c2)NCCN1` [Compound 58], the C3.5 score on CDK3/cyclinE (h) is 1 (Score 1 = 10-30% inhibition). Also, the C3.4 score at CDK2/cyclinE (h) is recorded as 2 (Score 2 = 30-60% inhibition). For the same compound, the C3.7 score on CDK6/cyclinD3 human was 1 (Score 1 = 10-30% inhibition). In addition, the C3.2 score on CDK1/cyclinB (h) was 2 (Score 2 = 30-60% inhibition). Also, the C3.3 score at CDK2/cyclinA (h) is given as 3 (Score 3 = 60-80% inhibition). Also, the IC50 at GSK-3α is 10 to 100 nM. For the same compound, the C3.6 score at CDK5/p35 human is 2 (Score 2 = 30-60% inhibition).
